Reference: the NIST ThermoML archive (doi:10.1021/je800463k)
± gives the expanded uncertainty stated by the source.

Test: mn = molality of the nth substance listed, in mol/kg
Conditions: 101 kPa, Liquid; for mass density: Pycnometric method; for electrical conductivity: Frequency=0.001 MHz, Alternating current cell with electrodes; for speed of sound: Frequency=2 MHz

CC(=O)[O-].CC(=O)[O-].[Mg+2] [magnesium acetate] + CO
Conditions | electrical conductivity [S/m] | mass density [kg/m3] | speed of sound [m/s] | viscosity [mPa·s]
299.65 K, m1 = 0.2422 | – | 803.36 ± 8 | – | –
300.15 K, m1 = 0.2003 | – | 800.18 ± 4.6 | – | –
300.2 K, m1 = 0.1402 | – | 796.94 ± 3.2 | – | –
300.25 K, m1 = 0.0646 | – | 791.69 ± 3.9 | – | –
300.35 K, m1 = 0.053 | – | 789.91 ± 3.2 | – | –
300.8 K, m1 = 0.0339 | – | 788.95 ± 1.2 | – | –
300.8 K, m1 = 0.3042 | – | 804.76 ± 5.4 | – | –
300.85 K, m1 = 0.014 | – | 787.26 ± 0.86 | – | –
300.85 K, m1 = 0.2668 | – | 803.07 ± 4.7 | – | –
301.1 K, m1 = 0.1112 | – | 794.25 ± 3.5 | – | –
301.5 K, m1 = 0.2422 | – | 801.62 ± 8.2 | – | –
301.9 K, m1 = 0.2003 | – | 798.5 ± 2.5 | – | –
301.9 K, m1 = 0.2192 | – | 799.27 ± 3.7 | – | –
301.95 K, m1 = 0.1798 | – | 798.03 ± 1.7 | – | –
302.05 K, m1 = 0.0646 | – | 790 ± 3.8 | – | –
302.15 K, m1 = 0.053 | – | 788.23 ± 1.8 | – | –
302.2 K, m1 = 0.0093 | – | 785.05 ± 0.98 | – | –
302.35 K, m1 = 0.0059 | – | 784.31 ± 0.89 | – | –
302.55 K, m1 = 0.3042 | – | 803.02 ± 5.1 | – | –
302.8 K, m1 = 0.2668 | – | 801.25 ± 4.3 | – | –
302.85 K, m1 = 0.1455 | – | 794.77 ± 4 | – | –
302.9 K, m1 = 0.1402 | – | 794.38 ± 3.9 | – | –
303.05 K, m1 = 0.0855 | – | 789.45 ± 2.5 | – | –
303.15 K, m1 = 0.0059 | 0.0362 ± 0.0001 | 783.47 ± 0.79 | 1086.1 ± 6.4 | –
303.15 K, m1 = 0.0093 | 0.0586 ± 0.0001 | – | 1085.4 ± 6.4 | –
303.15 K, m1 = 0.014 | – | – | – | 0.5207 ± 0.015
303.15 K, m1 = 0.018 | 0.0665 ± 0.0001 | – | 1086.1 ± 6.4 | 0.5223 ± 0.015
303.15 K, m1 = 0.0339 | 0.0868 ± 0.0001 | – | – | 0.5306 ± 0.015
303.15 K, m1 = 0.053 | 0.1018 ± 0.0001 | – | 1087.5 ± 6.4 | –
303.15 K, m1 = 0.0646 | 0.1103 ± 0.0001 | – | – | 0.5393 ± 0.015
303.15 K, m1 = 0.0855 | 0.122 ± 0.0001 | – | 1090.3 ± 6.4 | –
303.15 K, m1 = 0.1012 | – | – | – | 0.5622 ± 0.015
303.15 K, m1 = 0.1024 | 0.1302 ± 0.0001 | – | 1093.3 ± 6.4 | –
303.15 K, m1 = 0.13 | – | – | – | 0.5718 ± 0.016
303.15 K, m1 = 0.1402 | 0.1487 ± 0.0001 | – | 1092.4 ± 6.4 | 0.5779 ± 0.016
303.15 K, m1 = 0.1455 | 0.1524 ± 0.0001 | – | 1091.9 ± 6.4 | –
303.15 K, m1 = 0.17 | – | – | – | 0.5933 ± 0.016
303.15 K, m1 = 0.1837 | 0.1617 ± 0.0001 | – | 1094.3 ± 6.4 | –
303.15 K, m1 = 0.2003 | – | – | – | 0.6048 ± 0.016
303.15 K, m1 = 0.2192 | – | – | 1097.7 ± 6.4 | –
303.15 K, m1 = 0.2422 | 0.1746 ± 0.0001 | – | 1095.1 ± 6.4 | 0.6232 ± 0.017
303.15 K, m1 = 0.2453 | – | – | – | 0.6232 ± 0.017
303.15 K, m1 = 0.2889 | 0.181 ± 0.0001 | – | 1098.2 ± 6.4 | 0.642 ± 0.017
303.15 K, m1 = 0.3042 | – | – | 1099.8 ± 6.4 | –
303.25 K, m1 = 0.2422 | – | 799.9 ± 8 | – | –
303.45 K, m1 = 0.0339 | – | 786.42 ± 1.3 | – | –
303.5 K, m1 = 0.014 | – | 784.74 ± 0.81 | – | –
303.65 K, m1 = 0.2192 | – | 797.61 ± 7.3 | – | –
303.75 K, m1 = 0.1112 | – | 791.73 ± 3.4 | – | –
303.95 K, m1 = 0.053 | – | 786.54 ± 0.98 | – | –
304.35 K, m1 = 0.3042 | – | 801.29 ± 5.3 | – | –
304.6 K, m1 = 0.1402 | – | 792.72 ± 4.6 | – | –
304.6 K, m1 = 0.1798 | – | 795.47 ± 4.2 | – | –
304.6 K, m1 = 0.2003 | – | 795.91 ± 3.9 | – | –
304.65 K, m1 = 0.0646 | – | 787.5 ± 2 | – | –
304.75 K, m1 = 0.0855 | – | 787.76 ± 2.7 | – | –
304.85 K, m1 = 0.2668 | – | 799.19 ± 4.6 | – | –
304.9 K, m1 = 0.0093 | – | 782.5 ± 1 | – | –
304.95 K, m1 = 0.0059 | – | 781.79 ± 0.87 | – | –
305.3 K, m1 = 0.014 | – | 783.09 ± 0.94 | – | –
305.5 K, m1 = 0.1455 | – | 792.24 ± 3.8 | – | –
305.65 K, m1 = 0.053 | – | 784.95 ± 1.8 | – | –
305.8 K, m1 = 0.2422 | – | 797.4 ± 4.7 | – | –
305.95 K, m1 = 0.0339 | – | 783.96 ± 0.88 | – | –
306.1 K, m1 = 0.3042 | – | 799.61 ± 5.2 | – | –
306.15 K, m1 = 0.2192 | – | 795.21 ± 3.2 | – | –
306.25 K, m1 = 0.1402 | – | 791.07 ± 3.9 | – | –
306.3 K, m1 = 0.1112 | – | 789.29 ± 2.8 | – | –
306.35 K, m1 = 0.2003 | – | 794.29 ± 2.5 | – | –
306.4 K, m1 = 0.1798 | – | 793.8 ± 4.3 | – | –
306.55 K, m1 = 0.0093 | – | 780.91 ± 1 | – | –
306.65 K, m1 = 0.0059 | – | 780.15 ± 0.89 | – | –
306.95 K, m1 = 0.2668 | – | 797.14 ± 3.5 | – | –
307.1 K, m1 = 0.0646 | – | 785.07 ± 1.6 | – | –
307.3 K, m1 = 0.053 | – | 783.25 ± 1.6 | – | –
307.3 K, m1 = 0.1455 | – | 790.54 ± 4.9 | – | –
307.35 K, m1 = 0.0855 | – | 785.26 ± 2.7 | – | –
307.5 K, m1 = 0.2422 | – | 795.76 ± 8.2 | – | –
307.7 K, m1 = 0.0339 | – | 782.34 ± 1.3 | – | –
307.7 K, m1 = 0.3042 | – | 797.95 ± 5.3 | – | –
307.75 K, m1 = 0.014 | – | 780.67 ± 0.85 | – | –
307.8 K, m1 = 0.2192 | – | 793.51 ± 7.4 | – | –
307.95 K, m1 = 0.1402 | – | 789.51 ± 3.7 | – | –
308.15 K, m1 = 0.0059 | 0.0369 ± 0.0001 | – | 1070.1 ± 6.3 | –
308.15 K, m1 = 0.0093 | 0.0592 ± 0.0001 | – | 1068.7 ± 6.3 | –
308.15 K, m1 = 0.018 | 0.0674 ± 0.0001 | – | 1071.5 ± 6.3 | –
308.15 K, m1 = 0.0339 | 0.0879 ± 0.0001 | – | – | –
308.15 K, m1 = 0.053 | 0.103 ± 0.0001 | – | 1075.1 ± 6.3 | –
308.15 K, m1 = 0.0646 | 0.112 ± 0.0001 | – | – | –
308.15 K, m1 = 0.0855 | 0.1232 ± 0.0001 | – | – | –
308.15 K, m1 = 0.1024 | 0.1326 ± 0.0001 | – | – | –
308.15 K, m1 = 0.1402 | 0.151 ± 0.0001 | – | – | –
308.15 K, m1 = 0.1455 | 0.1557 ± 0.0001 | – | – | –
308.15 K, m1 = 0.1837 | 0.1631 ± 0.0001 | – | – | –
308.15 K, m1 = 0.2422 | 0.1782 ± 0.0001 | – | – | –
308.15 K, m1 = 0.2889 | 0.1835 ± 0.0001 | – | – | –
